Measured values: patent US11950596B2, “Methods of protecting seeds from oxidants and microorganisms” (The United States of America, as represented by the …, priority 2020, dated 2024)
Read-outs that look alike come from different tables or passages of the source. Marks after values point to notes of the source that are not given here.

Legend:
E. coli JM109 = assay: Heat-sensitizing bioassay of OG (MBC) in bacteria; assay type: cell-based; settings: Escherichia coli, 90 seconds, read-out: minimum bactericidal concentration (MBC) of OG
Method: (§1) As described in A. flavus 3357 test (see above), microfuge tubes were treated with mild heat (57.5° C.) or maintained at RT (22.0° C.) (90 seconds). After heat treatments, entire volume (200 μL) from each microfuge tube was spread onto fresh recovery LB agar (for bacteria) or PDA (for fungi), and plates were incubated at the optimum temperature for respective microorganisms (i.e., 35° C. for Aspergillus, 37° C. for E. coli, 28° C. for Penicillium/A. tumefaciens, respectively). The growth/survival of test microorganisms were monitored after 48 to 72 hrs of incubation.
(§2) Heat-sensitizing activity of OG against bacteria (A. tumefaciens, E. coli): Heat-sensitizing activity of OG was also investigated against bacterial cells (i.e., E. coli and plant-pathogenic A. tumefaciens). […] (Table 4; FIG. 2).

P. griseofulvum 2159 = assay: Heat-sensitizing bioassay of OG (MFC) in other fungi; assay type: cell-based, Penicillium griseofulvum; settings: 90 seconds
Method: as §1
(§3) Heat-sensitizing activity of OG against other fungi: Heat-sensitizing activity of OG was then investigated in other fungi (five Aspergillus strains and seven Penicillium strains) including fungicide resistant strains (i.e., P. expansum FR2, FR3 resistant to the conventional fungicide fludioxonil) (see Table 1).

A. flavus 3357 = assay: Antifungal seed disinfection bioassay (OG plus mild heat), A. flavus infection of cabbage seeds; assay type: in vivo, Aspergillus flavus; settings: for No. of seedlings infected: 12 seeds; for % A. flavus infection: mean over 20/50° C. and 20/30 min
Method: (§4) Antifungal seed disinfection bioassays using OG: Effect of OG plus mild heat hurdle technology on the level of seed sanitation (Brassica rapa Pekinensis; Chinese cabbage hybrid) was evaluated. Twelve cabbage seeds (per treatment), unsterilized, were transferred to each 1.5 mL microcentrifuge tube filled with 1 mL (final volume) distilled water, without or with A. flavus (1×10^5 CFU/mL): (1) No OG, no A. flavus inoculum, 20 or 30 min, 20° C.; (2) No OG, no A. flavus inoculum, 20 or 30 min, 50° C.; (3) No OG, w/A. flavus, 20 or 30 min, 20° C.; (4) No OG, w/A. flavus, 20 or 30 min, 50° C.; (5) OG 2 mM, w/A. flavus, 20 or 30 min, 20° C., (6) OG 2 mM, w/A. flavus, 20 or 30 min, 50° C., (7) OG 3 mM, w/A. flavus, 20 or 30 min, 20° C.; (8) OG 3 mM, w/A. flavus, 20 or 30 min, 50° C.; (9) OG 4 mM, w/A. flavus, 20 or 30 min, 20° C.; and (10) OG 4 mM, w/A. flavus, 20 or 30 min, 50° C. After each treatment, the treated seeds (total 12 seeds per treatment) were transferred to PDA and the plates were incubated in the dark at room temperature (RT; 20° C.) for seed germination. After seed germination, the growth of seedlings and fungal germination on the surfaces of germinated seeds were monitored up to 7 days (RT).
(§5) Seed disinfection via heat-sensitizing activity of OG: Heat-sensitizing capacity of OG was investigated further with crop seeds (Brassica rapa Pekinensis; Chinese cabbage hybrid) contaminated with A. flavus 3357 on the seed surfaces. OG (0, 2, 3, 4 mM) and mild heat (50° C.; Control: 20° C.) were co-applied for 20 to 30 minutes, and the rates of seed germination were also determined.

A. flavus 4212 = assay: Heat-sensitizing bioassay of OG (MFC) in other fungi; assay type: cell-based, Aspergillus flavus; settings: 90 seconds
Method: as §1, §3

[1] = system: A. tumefaciens or E. coli; assay: Heat-sensitizing bioassay of OG, average MBC of bacteria; assay type: cell-based, Agrobacterium tumefaciens, Escherichia coli; settings: 90 seconds
Method: as §1, §2

A. brasiliensis 16404 = assay: Heat-sensitizing bioassay of OG (MFC) in other fungi; assay type: cell-based, Aspergillus brasiliensis; settings: 90 seconds
Method: as §1, §3

[2] = system: twelve fungi (Aspergillus and Penicillium); assay: Heat-sensitizing bioassay of OG, average MFC of twelve fungi; assay type: cell-based; settings: 90 seconds; for MFC: read-out: average MFC of OG from twelve fungi
Method: as §1, §3
(RT) to 57.5° C. (mild heat).

[3] = system: Brassica rapa Pekinensis seeds; assay: Seed disinfection bioassay, germination of treated cabbage seeds; assay type: in vivo; settings: for No. of seedlings germinated: 12 seeds; for % Seed germination: mean over 20/50° C. and 20/30 min
Method: as §4, §5

[4] = OG as low as 3 mM, mild heat 50° C., 20 min

CCCCCCCCOC(=O)c1cc(O)c(O)c(O)c1 [Octyl gallate]
MBC (E. coli JM109; JM109, 22° C.): 300 µM | MBC (E. coli JM109; JM109, 57.5° C.): 75 µM | MFC (P. griseofulvum 2159; Penicillium griseofulvum, 2159, 22.0° C.): > 300 µM | MFC (P. griseofulvum 2159; Penicillium griseofulvum, 2159, 57.5° C.): 180 µM | No. of seedlings infected (A. flavus 3357; OG 2 mM, 20° C., 20 min): 12 | No. of seedlings infected (A. flavus 3357; OG 2 mM, 20° C., 30 min): 10 | No. of seedlings infected (A. flavus 3357; OG 2 mM, 50° C., 20 min): 4 | No. of seedlings infected (A. flavus 3357; OG 2 mM, 50° C., 30 min): 1 | % A. flavus infection (A. flavus 3357; OG 2 mM): 57 ± 43% | No. of seedlings infected (A. flavus 3357; OG 3 mM, 20° C., 20 min): 10 | No. of seedlings infected (A. flavus 3357; OG 3 mM, 20° C., 30 min): 10 | No. of seedlings infected (A. flavus 3357; OG 3 mM, 50° C., 20 min): 0^d | No. of seedlings infected (A. flavus 3357; OG 3 mM, 50° C., 30 min): 0^d | % A. flavus infection (A. flavus 3357; OG 3 mM): 42 ± 48% | growth of A. flavus contaminated on crop seeds (A. flavus 3357; OG 3 mM, mild heat 50° C., 20 to 30 minutes): completely inhibited | No. of seedlings infected (A. flavus 3357; OG 4 mM, 20° C., 20 min): 12 | No. of seedlings infected (A. flavus 3357; OG 4 mM, 20° C., 30 min): 11 | No. of seedlings infected (A. flavus 3357; OG 4 mM, 50° C., 20 min): 0^d | No. of seedlings infected (A. flavus 3357; OG 4 mM, 50° C., 30 min): 0^d | % A. flavus infection (A. flavus 3357; OG 4 mM): 48 ± 56% | growth of A. flavus on crop seeds (A. flavus 3357; [4]): completely inhibited | MFC (A. flavus 4212; Aspergillus flavus, 4212, 22.0° C.): > 300 µM | MFC (A. flavus 4212; Aspergillus flavus, 4212, 57.5° C.): 180 µM | MBC ([1]; 22° C.): 250 µM | MBC ([1]; 57.5° C.): 75 µM | average MBC of OG ([1]; 57.5° C., listed as OG): 75* μM | MFC (A. brasiliensis 16404; Aspergillus brasiliensis, 16404, 22.0° C.): > 300 µM | MFC (A. brasiliensis 16404; Aspergillus brasiliensis, 16404, 57.5° C.): 160 µM | MFC ([2]; 22.0° C., listed as OG): >283.3 µM | average MFC of OG from twelve fungi ([2]; 57.5° C., listed as OG): 175.8 (p < 0.005) μM | MFC ([2]; Aspergillus, 22.0° C.): > 283 µM | MFC ([2]; Aspergillus, 57.5° C.): 176 µM | No. of seedlings germinated ([3]; OG 2 mM, 20° C., 20 min): 12 | No. of seedlings germinated ([3]; OG 2 mM, 20° C., 30 min): 12 | No. of seedlings germinated ([3]; OG 2 mM, 50° C., 20 min): 12 | No. of seedlings germinated ([3]; OG 2 mM, 50° C., 30 min): 10 | % Seed germination ([3]; OG 2 mM): 96 ± 8% | No. of seedlings germinated ([3]; OG 3 mM, 20° C., 20 min): 12 | No. of seedlings germinated ([3]; OG 3 mM, 20° C., 30 min): 12 | No. of seedlings germinated ([3]; OG 3 mM, 50° C., 20 min): 12 | No. of seedlings germinated ([3]; OG 3 mM, 50° C., 30 min): 11 | % Seed germination ([3]; OG 3 mM): 98 ± 4% | No. of seedlings germinated ([3]; OG 4 mM, 20° C., 20 min): 12 | No. of seedlings germinated ([3]; OG 4 mM, 20° C., 30 min): 12 | No. of seedlings germinated ([3]; OG 4 mM, 50° C., 20 min): 11 | No. of seedlings germinated ([3]; OG 4 mM, 50° C., 30 min): 11 | % Seed germination ([3]; OG 4 mM): 96 ± 5% | germination rate of the crop seeds compared to the control [3, 4]: not affected
